# Reference: US6372937B1, “Enhanced catalyzed reporter deposition” (priority 1998, dated 2002)
# Tests used:
# [1] = molecular target: T1, HRP (Armoracia rusticana, UniProt P00433); assay: Enhanced CARD detection using biotinyl tyramide on human prostate tissue slides; format: biochemical, horseradish; conditions: enhancer at 20:1 (w/w) plus NaCl 2M, Streptavidin-HRP/diaminobenzidine readout
# T1 sequence (P00433 31-338): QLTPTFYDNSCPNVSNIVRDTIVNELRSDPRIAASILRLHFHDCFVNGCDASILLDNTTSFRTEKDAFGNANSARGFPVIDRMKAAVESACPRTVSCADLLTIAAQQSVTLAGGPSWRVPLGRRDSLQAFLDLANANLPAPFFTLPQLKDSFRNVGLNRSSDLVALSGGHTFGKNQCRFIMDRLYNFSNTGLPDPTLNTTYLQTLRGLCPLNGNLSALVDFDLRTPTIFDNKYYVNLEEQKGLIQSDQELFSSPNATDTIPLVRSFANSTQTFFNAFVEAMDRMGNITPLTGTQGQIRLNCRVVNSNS
# Procedure: Human prostate tissue slides (Dako) were deparaffinized and blocked for thirty minutes with TNB Blocking Buffer (TSA Indirect kit, NEN Life Science Products). Rabbit anti-human prostate specific antigen (Dako) diluted 1/100,000 in TNB buffer was incubated for one hour at room temperature. The slides were washed in TNT buffer (TSA Indirect kit) and then incubated with an anti-rabbit IgG-HRP conjugate (Roche) diluted 1/1000 in TNB buffer for one hour at room temperature.
# Standard CARD detection was performed using the TSA Indirect kit, which utilizes biotinyl tyramide. Organic and salt enhanced CARD detection was performed using the TSA Indirect kit, adding N-(5-hydroxypentyl)-3-(p-hydroxyphcnyl)propionamide (structure 1) at a 20:1 (w/w) ratio to the biotinyl tyramide reagent and adding NaCl to the diluent to a final concentration of 2M. The slides were washed in TNT buffer, and Streptavidin-HRP (TSA Indirect kit) diluted 1/100 in TNB buffer was incubated for thirty minutes at room temperature. The slides were washed in TNT buffer and diaminobenzidine (NEN Life Science Products) was added and incubated for three minutes at room temperature. The slides were washed with water, and counterstained with Hematoxylin. The slides were then washed with water, phosphate buffered saline, water, dehydrated and mounted.
# [2] = molecular target: T1, HRP; assay: Enhanced CARD detection using fluorescein tyramide on human prostate tissue slides; format: biochemical, horseradish
# Procedure: Human prostate tissue slides (Dako) were deparaffinized and blocked for thirty minutes with TNB Blocking Buffer (TSA Direct Green kit, NEN Life Science Products). Rabbit anti-human prostate specific antigen (Dako) diluted 1/10,000 in TNB buffer was incubated for one hour at room temperature. The slides were washed in TNT buffer (TSA Direct Green kit) and then incubated with an anti-rabbit IgG-HRP conjugate (Roche) diluted 1/1000 in TNB buffer for one hour at room temperature. Standard CARD detection was performed using the TSA Direct Green kit, which utilizes fluorescein tyramide. Organic enhanced CARD detection was performed using the TSA Direct Green kit and adding p-iodophenyl boronic acid (structure 2) at a 20:1 (w/w) ratio to the fluorescein tyramide reagent. Organic and salt enhanced CARD detection was performed using the TSA Direct Green kit, adding p-iodophenyl boronic acid (structure 2) at a 20:1 (w/w) ratio to the fluorescein tyramide reagent and adding NaCl to the diluent to a final concentration of 2M. The slides were washed in TNT buffer, mounted with mounting medium and a coverslip.
# [3] = molecular target: T1, HRP; assay: Enhanced CARD detection using cyanine 3 tyramide on human prostate tissue slides; format: biochemical, horseradish
# Procedure: Human prostate tissue slides (Dako Corp., Carpinteria, Calif.) were deparaffinized and blocked for thirty minutes with TNB Blocking Buffer (TSA Direct Cyanine 3 kit, NEN Life Science Products, Boston, Mass.). Rabbit anti-human prostate specific antigen (Dako) diluted 1/40,000 in TNB buffer was incubated for one hour at room temperature. The slides were washed in TNT buffer (TSA Direct Cyanine 3 kit) and then incubated with an anti-rabbit IgG-HRP conjugate (Roche Molecular Biochemicals, Indianapolis, Ind.) diluted 1/1000 in TNB buffer for one hour at room temperature. Standard CARD detection was performed using the TSA Direct Cyanine 3 kit. Organic enhanced CARD detection was performed using the TSA Direct Cyanine 3 kit and adding p-iodophenyl boronic acid (structure 2) at a 20:1 (w/w) ratio to the cyanine 3 tyramide reagent. Organic and salt enhanced CARD detection was performed using the TSA Direct Cyanine 3 kit, adding p-iodophenyl boronic acid (structure 2) at a 20:1 (w/w) ratio to the cyanine 3 tyramide reagent and adding NaCl to the diluent to a final concentration of 2M. The slides were washed in TNT buffer, mounted with mounting medium and a coverslip.
# [4] = molecular target: T1, HRP; conditions: cited from earlier work
# [5] = NaCl 2M in diluent added to p-iodophenyl boronic acid 20:1 (w/w)
# [6] = enhancer at 20:1 (w/w) ratio to tyramide reagent
compound,measurement,setting,value
O=C(CCc1ccc(O)cc1)NCCCCCO [N-(5-hydroxypentyl)-3-(p-hydroxyphcnyl)propionamide],organic and salt enhanced vs standard CARD detection (FIG. 3A compared to FIG. 3B),[1],striking difference
[Cl-].[Na+] [NaCl],addition of salt to the organic enhanced CARD detection (FIG. 2B compared to FIG. 2C),[2]; [5],very dramatic improvement
same,addition of salt to the organic enhanced CARD detection (FIG. 1B compared to FIG. 1C),[3]; [5],significant improvement
c1c[nH]cn1 [imidazole],effect on the oxidation of 4-chloro-1-naphthol,[4]; substrate 4-chloro-1-naphthol,no effect
same,enhancement of the oxidation of p-phenylenediamine-pyrocatechol,[4]; substrate combination p-phenylenediamine-pyrocatechol,two fold
same,enhancement of the oxidation of diaminobenzidine,[4]; substrate diaminobenzidine,approximately four fold
OB(O)c1ccc(I)cc1 [p-iodophenyl boronic acid],organic enhanced vs standard CARD detection (FIG. 2A compared to FIG. 2B),[2]; [6],significant difference
same,organic enhanced vs standard CARD detection (FIG. 1A compared to FIG. 1B),[3]; [6],very dramatic difference
